As a reminder, the IC50 is the concentration needed to halve the response being measured.

Where two headings read alike, the source gives them in different places.

The target of one assay is full-length human BTK (Homo sapiens (Human), UniProt Q06187). Briefly: BTK IC50 enzyme assay (microfluidic off-chip mobility shift kinase assay). It counts as biochemical. Conditions: incubated for 90 min. at 27 C; read-out: Time Dependent BTK Enzyme Assay IC50. The method, boiled down: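 Off-chip microfluidic mobility shift assay on full-length human BTK; substrate-to-product conversion measured by charge/mass separation of phosphorylated peptide after reaction stop.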
Chain of full-length human BTK (Q06187 whole entry): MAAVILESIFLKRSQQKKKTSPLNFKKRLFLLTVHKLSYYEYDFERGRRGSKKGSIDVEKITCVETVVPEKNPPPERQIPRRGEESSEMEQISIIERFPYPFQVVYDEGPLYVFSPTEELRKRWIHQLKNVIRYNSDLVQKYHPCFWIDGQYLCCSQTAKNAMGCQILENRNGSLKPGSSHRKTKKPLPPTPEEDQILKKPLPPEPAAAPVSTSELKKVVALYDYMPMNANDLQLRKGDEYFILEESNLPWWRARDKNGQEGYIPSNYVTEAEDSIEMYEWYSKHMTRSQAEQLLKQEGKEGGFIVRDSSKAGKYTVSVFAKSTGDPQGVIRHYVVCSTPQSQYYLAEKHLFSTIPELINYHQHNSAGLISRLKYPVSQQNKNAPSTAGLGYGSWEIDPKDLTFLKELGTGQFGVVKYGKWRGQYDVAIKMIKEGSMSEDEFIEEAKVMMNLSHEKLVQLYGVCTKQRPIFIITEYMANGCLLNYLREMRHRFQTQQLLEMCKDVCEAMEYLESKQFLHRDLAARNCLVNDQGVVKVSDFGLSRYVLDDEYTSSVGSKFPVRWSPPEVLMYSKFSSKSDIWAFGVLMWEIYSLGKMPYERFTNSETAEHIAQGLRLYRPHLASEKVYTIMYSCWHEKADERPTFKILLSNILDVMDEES

Another assay relates to PBMC. Briefly: Time Dependent PBMC IC50 assay. It is filed as cell-based. On the procedure: Compounds described by embodiments of the present invention were assayed using a time dependent PMBC assay.
The next assay concerns the target BTK (Homo sapiens (Human), UniProt Q06187). Briefly: Time Dependent Human Whole Blood IC50 assay. It is filed as cell-based. On the procedure:
Compounds described by embodiments of the present invention were assayed using a human whole blood assay. The data from the same is recorded in Table 2 within the column labeled: “Time Dependent Human Whole Blood BTK Enzyme Assay IC50”.

Another assay has as its system NZB/W F1 mice. The assay is described as follows: Interferon-alpha accelerated systemic lupus erythematosus (SLE) mouse model. It counts as in vivo. Conditions: oral, daily from day 14, 0.1, 0.3, 1, or 3 mg/kg; NZB/W F1 mice with ADV-IFN-α. The protocol: 1-(4-(((6-amino-5-(4-phenoxyphenyl)pyrimidin-4-yl)amino)methyl)piperidin-1-yl)prop-2-en-1-one, designated as “CPD. B”, was evaluated in an interferon-alpha accelerated SLE mouse model. NZB/W F1 mice received i.v. injection at day 0 and day 1 of 10^8 infectious units of adenovirus (ADV-IFN-α) to deliver a transient overexpression on interferon alpha. Oral dosing of the different group treatments was initiated on day 14 and continued daily at 24 hour intervals until the end of the study. Treatment groups consisted of 20% Kleptose HPB in Na-citrate buffer (vehicle) or 0.1, 0.3, 1, or 3 mg/kg of Cpd. […] As shown in Panel 1B Cpd. […] FIG. 2 presents data from another interferon-alpha accelerated SLE experiment in mice. NZB/W F1 mice received i.v. injections at day 0 and day 1 of 10^8 infectious units of adenovirus (ADV-IFN-α) to deliver a transient overexpression on interferon alpha. Oral dosing of the different group treatments (n=10) was initiated on day 14 and continued daily at 24 hour intervals until the end of the study. Treatment groups consisted of 20% Kleptose HPB in Na-citrate buffer (vehicle), 0.1, 0.3, 1, or 3 mg/kg of Cpd. B or Cell Cept®. […] Statistical analysis was performed using Two way ANOVA with Bonferroni post test with all groups compared to vehicle treated group (*=p<0.05, **=p<0.01, ***=p<0.001).

The mark [1] stands for this setting: human whole blood, read-out: Time Dependent Human Whole Blood BTK Enzyme Assay IC50.

Chain of BTK (Q06187 whole entry): as above

Regarding `C=CC(=O)Nc1cccc(Nc2ncnc(N)c2-c2ccc(Oc3ccccc3)cc2)c1` [A3, N-(3-((6-amino-5-(4-phenoxyphenyl)pyrimidin-4-yl)amino)phenyl)acrylamide], the IC50 on full-length human BTK was below 100 nM; with PBMC, below 1000 nM; at BTK (setting [1]) it was below 1000 nM.
As for `C=CC(=O)N1C2CCC1CC(CNc1ncnc(N)c1-c1ccc(Oc3ccccc3)cc1)C2` (centres unmarked) [A48, 1-(3-(((6-amino-5-(4-phenoxyphenyl)pyrimidin-4-yl)amino)methyl)-8-azabicyclo[3.2.1]octan-8-yl)prop-2-en-1-one], the IC50 was below 100 nM on full-length human BTK and above 1000 nM on BTK.
As to `C=CC(=O)N1CC2(CC(Oc3ncnc(N)c3-c3ccc(Oc4ccccc4)cc3)C2)C1` [A120, 1-(6-((6-amino-5-(4-phenoxyphenyl)pyrimidin-4-yl)oxy)-2-azaspiro[3.3]heptan-2-yl) prop-2-en-1-one], the values for the IC50 at full-length human BTK, in the assay with PBMC and at BTK (setting [1]) were below 100 nM, below 1000 nM and below 1000 nM, respectively.
Turning to `C=CC(=O)Nc1cccc(Oc2ncnc(N)c2-c2cnn(Cc3ccccc3)c2)c1` [A172, N-(3-((6-amino-5-(1-benzyl-1H-pyrazol-4-yl)pyrimidin-4-yl)oxy)phenyl)acrylamide], the IC50 was below 100 nM on full-length human BTK, below 1000 nM with PBMC and below 1000 nM at BTK (setting [1]).
Consider `C=CC(=O)Nc1ccc(F)c(Oc2ncnc(N)c2-c2ccc(Oc3ccccc3)cc2)c1` [A246, N-(3-((6-amino-5-(4-phenoxyphenyl)pyrimidin-4-yl)oxy)-4-fluorophenyl)acrylamide], for which the IC50 on full-length human BTK was below 100 nM; with PBMC it was below 1000 nM; on BTK (setting [1]) it was below 1000 nM.
Turning to `C=CC(=O)Nc1cc(Oc2ncnc(N)c2-c2ccc(Oc3ccccc3)cc2)c(F)cc1F` [A251, N-(5-((6-amino-5-(4-phenoxyphenyl)pyrimidin-4-yl)oxy)-2,4-difluorophenyl)acrylamide], the IC50 on full-length human BTK is below 100 nM; in the assay with PBMC it was below 1000 nM; on BTK (setting [1]), below 1000 nM.
For the molecule `CC#CC(=O)N1CC[C@@H](Nc2ncnc(N)c2-c2ccc(Oc3ccccc3)cc2)C1` [A341, (R)-1-(3-((6-amino-5-(4-phenoxyphenyl)pyrimidin-4-yl)amino)pyrrolidin-1-yl)but-2-yn-1-one], the IC50 on full-length human BTK was below 100 nM; in the assay with PBMC, below 1000 nM.
On to `C=CC(=O)N1CCC(CNc2ncnc(N)c2-c2ccc(Oc3ccccc3)cc2)CC1` [Cpd. B, 1-(4-(((6-amino-5-(4-phenoxyphenyl)pyrimidin-4-yl)amino)methyl)piperidin-1-yl)prop-2-en-1-one], for which, in the assay with NZB/W F1 mice, the disease activity entry is given as “reduces the disease activity in a dose-dependent manner”.

(Values after US9580449B2, “Compositions and methods for the production of pyrimidine and pyridine compounds with BTK inhibitory activity” (Merck Patent GmbH, priority 2011, dated 2017).)
